What was measured:
[1] = system: MM-AN human melanoma cells; assay: apoptosis of MM-AN melanoma cells by FACS analysis (propidium iodide); type: cell-based; conditions: 10 μM, 40 μM and 80 μM
Method: Cultures of MM-AN human melanoma cells were treated with diluent (water or DMSO) alone, a T-oligo (16mer: 5′ GTTAGGGTTAGGGTTA 3′; SEQ ID NO: 2), SPOX-1, or SPOX-2 for 96 hours, then collected and processed for FACS analysis. One concentration of the T-oligo (20 μM) and three concentrations of each SPOX compound (10 μM, 40 μM and 80 μM) were tested. Each bar is the mean of triplicate dishes +/− standard error of the mean (SEM). FACS profiles are depicted at the top of the figure.
Cultures of MM-AN human melanoma cells were treated with diluent (water or DMSO) alone, 16mer T-oligo (SEQ ID NO: 2), SPOX-337, SPOX-338 or SPOX-343 for 72 hours, then collected and processed for FACS analysis. One concentration of the T-oligo (20 μM) and three concentrations of each SPOX compound (10 μM, 40 μM and 80 μM) were tested.

p53 = p53 level in human fibroblasts, Western blot; type: cell-based; conditions: 48 hours, compared with diluent alone
Method: (§1) Human fibroblasts were treated with diluent (water or DMSO) alone, SPOX-1, SPOX-2, or 16mer T-oligo (SEQ ID NO: 2) for 48 hours after which total cellular proteins were harvested and Western blot analysis performed using anti-p53 and anti-p21 antibodies.

Histone H2AX (γH2AX) [2] = assay: γH2AX formation in MCF-7 cells, western blot; type: cell-based, human; conditions: compared with 16mer T-oligo
Method: (§2) Phosphorylation of Histone H2AX (forming γH2AX) was assessed as a marker for DNA damage. Apoptosis was measured by western blot analysis to show cleavage of poly(ADP-ribose) polymerase (PARP). PARP is a substrate for caspase-3, an enzyme that mediates apoptosis, and thus cleavage of PARP by caspase-3 is indicative of ongoing apoptosis. […] Thus, both SPOX compounds induce apoptosis and formation of γH2AX, as a marker of DNA damage-like responses, in the MCF-7 breast cancer cell line.

[3] = system: poly(ADP-ribose) polymerase (PARP); assay: PARP cleavage in MCF-7 cells, western blot; type: cell-based, human; conditions: compared with TNF-α
Method: as §2

MCF-7 cells = assay: growth of MCF-7 breast cancer cells; type: cell-based, human; conditions: for growth of MCF-7 cells: 10 μM; for growth of MCF-7 cells / growth of MCF-7 cells at higher concentrations: 40 μM and 80 μM; for growth of MCF-7 cells at higher concentrations: 8 days after plating; for growth of MCF-7 cells at highest concentration: 80 μM, 3 days after plating; for growth arrest of malignant cells: summary statement
Method: The effect of SPOX compounds on growth and apoptosis of human breast cancer cells was tested using cultures of MCF-7 cells. The effect on cell growth was tested by plating 20,000 cells per 35 mm dish. Medium containing either diluent alone (DMSO), SPOX-1 or SPOX-2 (10 μM, 40 μM and 80 μM) was introduced at 96 hours and growth was determined 8 days after plating.
The effect of SPOX compounds on growth of human breast cancer cells was tested using cultures of MCF-7 cells. The effect on cell growth was tested by plating 20,000 cells per 35 mm dish. Medium containing either diluent (water or DMSO) alone, SPOX-337, SPOX-388, SPOX-343 (10 μM, 40 μM and 80 μM) or 16mer T-oligo (SEQ ID NO: 2) was introduced at 96 hours and growth was determined 3 days after plating.

human fibroblasts = assay: growth of newborn fibroblast cells; type: cell-based; conditions: 40 μM; growth determined 2 and 4 days after plating
Method: The effect of SPOX compounds on growth of human fibroblasts was tested using cultures of newborn fibroblast cells. Briefly, 20,000 cells were plated per 35 mm dish. Medium containing either diluent (dimethyl sulfoxide (DMSO)) alone, SPOX-1 (40 μM) SPOX-2 (40 μM) or 11mer T-oligo (SEQ ID NO:1) was introduced at 96 hours and growth was determined 2 and 4 days after plating.

[4] = system: MM-AN human melanoma cells; assay: growth of MM-AN melanoma cells; type: cell-based; conditions: 40 μM; 2, 3 and 4 days after treatment
Method: (§3) The effect of SPOX compounds on growth of human melanoma cells was tested using cultures of MM-AN cells. Briefly, 20,000 MM-AN cells were plated per 35 mm dish. Medium containing either diluent (DMSO) alone, SPOX-1 or SPOX-2 (40 μM) was introduced at 96 hours and growth was determined 2, 3 and 4 days after treatment.

[5] = system: H460 human lung cancer cells; assay: growth of H460 lung cancer cells; type: cell-based; conditions: 40 μM; 1, 2, 3 and 4 days after plating
Method: as §3, with “lung cancer” for “melanoma”, “H460” for “MM-AN”, “20,000H460” for “20,000 MM-AN”, “determined 1,” for “determined”, “plating.” for “treatment.”

human skin explants = assay: melanogenesis in human skin explants (Fontana Masson stain, image analysis); type: cell-based; conditions: 80 uM; 24, 48 and 72 hours; positive control pTT 100 uM
Method: Normal facial skin removed from a person at the time of facelift was carefully cut into fragments approximately 5×5 mm. The fragments were placed in tissue culture dishes in standard culture medium, under conditions known to maintain the fragments in good condition, responsive to physiologic stimuli, for at least one week (Arad et al, FASEB J. Jul. 28, 2006. [Epub]). Fragments were arranged with at least 3 per 35 mm dish and after 48 hours, one dish each was provided with fresh medium containing diluent (DMSO) alone (Dil) or SPOX-1 or SPOX-2 each at 80 uM or thymidine dinucleotide (pTT) at 100 uM as a positive control. […] The 72 hour diluent (Dil) control sample was judged to be bacterially contaminated, affecting both the overall histology and the apparent melanin content, which based on earlier experiments would be expected to be the same as at 24 and 48 hours. All other samples were believed to be healthy and to accurately represent the response to treatment.

p21 = p21 level in human fibroblasts, Western blot; type: cell-based; conditions: 48 hours, compared with diluent alone
Method: as §1

survivin = survivin expression in H460 lung cancer cells; type: cell-based, human; conditions: for survivin expression at 80 μM: 24 hours; for survivin expression / survivin expression at 40 μM: 2 days, 40 μM; for survivin expression: 20 μM
Method: The ability of the SPOX compounds to inhibit expression of survivin, a member of the Inhibitor of Apoptosis Protein (IAP) family, was determined by treating H460 human lung cancer cells for two days with diluent (DMSO) alone, SPOX-1 (20 μM, 40 μM), SPOX-2 (20 μM, 40 μM) and T-oligo (16mer: 5′ GGTTGGTTGGTTGGTT 3′; SEQ ID NO: 3) (20 μM, 40 μM) or for 24 hours with SPOX-1 (80 μM) or SPOX-2 (80 μM). Following treatment, cells were collected, counted, and assayed for survivin expression. The results are depicted in FIG. 15.

[6] = system: ataxia telanglectasia mutated (ATM) kinase; assay: phosphorylation of ATM at serine 1981 in MM-AN cells, Western blot; type: cell-based, human; conditions: 40 μM, 48 hours
Method: Phosphorylated ATM in turn phosphorylates, and thus activates, p53. MM-AN cells were treated with diluent (medium or DMSO) alone, 40 μM of […] or 40 μM of SPOX-2 for 48 hours then collected and analyzed by Western blot using an antibody against ATM phosphoserine 1981.

[7] = system: WRN− U20S human osteosarcoma cells; assay: apoptosis of WRN− U20S cells by FACS analysis; type: cell-based; conditions: 96 hours
Method: (§4) Cultures of WRN+ and WRN− U20S human osteosarcoma cells were treated with either diluent (water or DMSO) alone, 16mer T-oligo (SEQ ID NO: 2) or SPOX-1 for 96 hours, then collected and processed for FACS analysis. One concentration of the 16mer T-oligo was tested, 20 μM, and three concentrations of SPOX-1 were tested, 10 μM, 40 μM and 80 μM.

Histone H2AX (γH2AX) [8] = assay: γH2AX formation in human fibroblasts by immunofluorescent microscopy; type: cell-based; conditions: 48 hours
Method: Phosphorylation of Histone H2AX (forming γH2AX) is a marker for DNA damage in many settings and is also observed at telomeres when cells enter senescence. […] In both experiments, cells were incubated for 48 hours in the presence of SPOX-1 or 11mer T-oligo before processing for immunofluorescent microscopy.

[9] = system: WRN+ U20S human osteosarcoma cells; assay: apoptosis of WRN+ U20S cells by FACS analysis; type: cell-based; conditions: 96 hours; 10 μM, 40 μM and 80 μM
Method: as §4

[10] = growth determined 8 days after plating
[11] = growth determined 3 days after plating

## C=CCOC(=O)C1C2C(=O)OC(c3ccccc3)C(c3ccccc3)N2C(c2ccc(O)cc2)C12C(=O)Nc1ccc(I)cc12 (centres unmarked) [SPOX-2]
[1]; 96 hours
  induction of apoptosis: induced apoptosis
p53
  level of p53: induced the level of p53
Histone H2AX (γH2AX) [2]
  phosphorylation of histone H2AX (γH2AX): cause phosphorylation of the histone protein H2AX
[3]
  PARP cleavage: cause PARP cleavage
MCF-7 cells; [10]
  growth of MCF-7 cells: inhibited growth of MCF-7 cells in a dose-dependent manner
MCF-7 cells
  growth of MCF-7 cells at higher concentrations: nearly complete inhibition of growth
Human fibroblasts
  growth of human fibroblast cells: inhibited growth
[4]
  growth of MM-AN cells: inhibited growth
[5]
  growth of H460 cells: inhibited growth
Human skin explants
  melanogenesis (tanning) in human skin: caused tanning, comparable to pTT
p21
  level of p21: induced the level of the p53-dependent downstream effector protein p21 to a similar degree as 16mer T-oligo
survivin
  survivin expression at 80 μM: reduced survivin expression to nearly undetectable levels
  survivin expression: dose-dependent reduction in survivin expression
  survivin expression at 40 μM: nearly undetectable
[6]
  phosphorylation of ATM at serine 1981: induce phosphorylation of ATM

## 16mer T-oligo (SEQ ID NO: 2): telomere homolog oligonucleotide, 16mer: 5′ GTTAGGGTTAGGGTTA 3′; SEQ ID NO: 2 (listed as DNA, further chemistry not given here) [reference compound]
[7]; 20 μM
  induction of apoptosis in WRN− versus WRN+ U20S cells: less effective in inducing apoptosis in WRN− than in U20S cells with intact WRN

## C=CCOC(=O)C1C2C(=O)OC(c3ccccc3)C(c3ccccc3)N2C(c2ccc(O)cc2)C12C(=O)Nc1ccccc12 (centres unmarked) [SPOX-343]
[1]; 72 hours
  induction of apoptosis: induced apoptosis with SPOX-337 and SPOX-343 having greatest effect
MCF-7 cells; [11]
  growth of MCF-7 cells: inhibited growth of MCF-7 cells in a dose-dependent manner
MCF-7 cells
  growth of MCF-7 cells at highest concentration: nearly complete inhibition of growth
  growth arrest of malignant cells: retain the capability of arresting the growth of malignant cells

## 11mer T-oligo: telomere homolog oligonucleotide, 11mer: 5′ GTTAGGGTTAG 3′; SEQ ID NO: 1 (listed as DNA, further chemistry not given here) [reference compound]
[6]
  phosphorylation of ATM at serine 1981: induce phosphorylation of ATM
Histone H2AX (γH2AX) [8]
  γH2AX expression: induce γH2AX expression

## C=CCOC(=O)C1C2C(=O)OC(c3ccccc3)C(c3ccccc3)N2C(c2ccc(O)cc2)C12C(=O)Nc1ccc(I)cc12 (centres unmarked) [SPOX-1]
[1]; 96 hours
  induction of apoptosis: induced apoptosis with SPOX-1 having a greater effect
[9]
  induction of apoptosis in WRN+ U20S cells: induced apoptosis in WRN+ U20S cells in a dose-dependent manner
p53
  level of p53: induced the level of p53
Histone H2AX (γH2AX) [2]
  phosphorylation of histone H2AX (γH2AX): cause phosphorylation of the histone protein H2AX
[3]
  PARP cleavage: cause PARP cleavage
MCF-7 cells; [10]
  growth of MCF-7 cells: inhibited growth of MCF-7 cells in a dose-dependent manner
MCF-7 cells
  growth of MCF-7 cells at higher concentrations: nearly complete inhibition of growth
Human fibroblasts
  growth of human fibroblast cells: inhibited growth
[4]
  growth of MM-AN cells: inhibited growth
[5]
  growth of H460 cells: inhibited growth
Human skin explants
  melanogenesis (tanning) in human skin: caused tanning, comparable to pTT
p21
  level of p21: induced the level of the p53-dependent downstream effector protein p21 to a similar degree as 16mer T-oligo
[7]; 40 μM and 80 μM
  induction of apoptosis in WRN− U20S cells: apoptosis was also seen
survivin
  survivin expression at 80 μM: reduced survivin expression to nearly undetectable levels
  survivin expression: dose-dependent reduction in survivin expression
  survivin expression at 40 μM: nearly undetectable
Histone H2AX (γH2AX) [8]
  γH2AX expression: induce γH2AX expression

## C=CCOC(=O)C1C2C(=O)OC(c3ccccc3)C(c3ccccc3)N2C(c2ccc(OCCO)cc2)C12C(=O)Nc1ccc(I)cc12 (centres unmarked) [SPOX-337]
[1]; 72 hours
  induction of apoptosis: induced apoptosis with SPOX-337 and SPOX-343 having greatest effect
MCF-7 cells; [11]
  growth of MCF-7 cells: inhibited growth of MCF-7 cells in a dose-dependent manner
MCF-7 cells
  growth of MCF-7 cells at highest concentration: nearly complete inhibition of growth
  growth arrest of malignant cells: retain the capability of arresting the growth of malignant cells

## C=CCOC(=O)C1C2C(=O)OC(c3ccccc3)C(c3ccccc3)N2C(c2ccc(OCCO)cc2)C12C(=O)Nc1ccccc12 (centres unmarked) [SPOX-338]
[1]; 72 hours
  induction of apoptosis: induced apoptosis
MCF-7 cells; [11]
  growth of MCF-7 cells: inhibited growth of MCF-7 cells in a dose-dependent manner
MCF-7 cells
  growth of MCF-7 cells at highest concentration: nearly complete inhibition of growth
  growth arrest of malignant cells: retain the capability of arresting the growth of malignant cells

Source: patent US20100093716A1, “THERAPEUTIC METHODS USING WRN BINDING MOLECULES” (TRUSTEES OF BOSTON UNIVERSITY AND PRESIDENT AND FELLOWS OF …, priority 2006, published 2010)
